In US8927500B2, “Peptidomimetic macrocycles” (Aileron Therapeutics, Inc., priority 2012, dated 2015):

Assays:
MDM2 = MDM2 (Homo sapiens, UniProt Q00987); experiment: Competitive fluorescence polarization assay for MDM2; type: binding; conditions: competitive FP assay, MDM2; for IC50: read-out: IC50 (MDM2); for Ki: read-out: Ki (MDM2)
MDMX = target: T1, MDMX (Homo sapiens, UniProt O15151); experiment: Competitive fluorescence polarization assay for MDMX; type: binding; conditions: competitive FP assay; for IC50: read-out: IC50 (MDMX); for Ki: read-out: Ki (MDMX)
T1 sequence (O15151 1-125): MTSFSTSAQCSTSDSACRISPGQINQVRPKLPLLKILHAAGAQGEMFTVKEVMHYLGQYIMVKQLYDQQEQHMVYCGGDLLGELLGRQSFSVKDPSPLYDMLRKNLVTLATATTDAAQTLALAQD

Chain of MDM2 (Q00987 1-125): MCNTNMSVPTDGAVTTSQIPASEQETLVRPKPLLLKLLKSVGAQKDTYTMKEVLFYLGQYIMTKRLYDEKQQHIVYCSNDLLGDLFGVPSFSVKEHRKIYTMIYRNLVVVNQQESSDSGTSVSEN

Row | SMILES | IC50 (MDM2) | Ki (MDM2) | IC50 (MDMX) | Ki (MDMX)
1 | CC(=O)N[C@@H](CC(C)C)C(=O)N[C@H](C(=O)N[C@@H](Cc1ccccc1)C(=O)N[C@]1(C)CCCCCCC=CCCC[C@@](C)(C(=O)N[C@@H](C)C(=O)N[C@@H](C)C(=O)N[C@@H](CC(C)C)C(=O)N[C@H](C)C(N)=O)NC(=O)[C@H](CC(C)C)NC(=O)[C@H](CCC(N)=O)NC(=O)[C@H](C)NC(=O)[C@H](Cc2c[nH]c3ccccc23)NC(=O)[C@H](Cc2c[nH]cn2)NC(=O)[C@H](CCC(=O)O)NC1=O)[C@@H](C)O (single isomer, unassigned) [compound 227] | < 0.01 µM | < 0.01 µM | 0.1 to 1 µM | 0.01 to 0.1 µM
2 | CC(=O)N[C@@H](CC(C)C)C(=O)N[C@H](C(=O)N[C@@H](Cc1ccccc1)C(=O)N[C@]1(C)CCCCCCC=CCCC[C@@](C)(C(=O)N[C@@H](CO)C(=O)N[C@@H](C)C(=O)N[C@@H](C)C(N)=O)NC(=O)[C@H](CC2CCC2)NC(=O)[C@H](CCC(N)=O)NC(=O)[C@H](C)NC(=O)[C@H](Cc2c[nH]c3ccccc23)NC(=O)[C@H](Cc2ccc(C(=O)O)cc2)NC(=O)[C@H](CCC(=O)O)NC1=O)[C@@H](C)O (single isomer, unassigned) [compound 291] | 0.01 to 0.1 µM | < 0.01 µM | 0.01 to 0.1 µM | < 0.01 µM
3 | CC(=O)N[C@@H](CC(C)C)C(=O)N[C@H](C(=O)N[C@@H](Cc1ccccc1)C(=O)N[C@]1(C)CCCCCCC=CCCC[C@@](C)(C(=O)N[C@@H](CO)C(=O)N[C@@H](C)C(=O)N[C@@H](C)C(N)=O)NC(=O)[C@H](CC2CCC2)NC(=O)[C@H](CCC(N)=O)NC(=O)[C@H](CO)NC(=O)[C@H](Cc2c[nH]c3ccccc23)NC(=O)[C@H](Cc2ccc(O)cc2)NC(=O)[C@H](CCC(=O)O)NC1=O)[C@@H](C)O (single isomer, unassigned) [compound 293] | < 0.01 µM | < 0.01 µM | 0.01 to 0.1 µM | 0.01 to 0.1 µM
4 | CCCC[C@H](NC(=O)[C@H](C)NC(=O)[C@H](C)NC(=O)[C@]1(C)CCCC=CCCCCCC[C@@](C)(NC(=O)[C@H](Cc2ccc(F)c(F)c2)NC(=O)[C@@H](NC(=O)[C@H](CC(C)C)NC(C)=O)[C@@H](C)O)C(=O)N[C@@H](C)C(=O)N[C@@H](Cc2ccc(O)cc2)C(=O)N[C@@H](Cc2c[nH]c3ccccc23)C(=O)N[C@@H](C)C(=O)N[C@@H](CCC(N)=O)C(=O)N[C@@H](CCC(C)C)C(=O)N1)C(=O)N[C@@H](C)C(N)=O (single isomer, unassigned) [compound 308] | 0.1 to 1 µM | 0.01 to 0.1 µM | 0.1 to 1 µM | 0.01 to 0.1 µM
5 | CCCC[C@H](NC(=O)[C@H](C)NC(=O)[C@H](C)NC(=O)[C@]1(C)CCCC=CCCCCCC[C@@](C)(NC(=O)[C@H](Cc2ccccc2)NC(=O)[C@@H](NC(=O)[C@H](CC(C)C)NC(C)=O)[C@@H](C)O)C(=O)N[C@@H](C)C(=O)N[C@@H](Cc2ccc(C(=O)O)cc2)C(=O)N[C@@H](Cc2c[nH]c3ccccc23)C(=O)N[C@@H](C)C(=O)N[C@@H](CCC(N)=O)C(=O)N[C@@H](CCC(C)C)C(=O)N1)C(=O)N[C@@H](C)C(N)=O (single isomer, unassigned) [compound 310] | 0.01 to 0.1 µM | < 0.01 µM | 0.01 to 0.1 µM | 0.01 to 0.1 µM
6 | CCCC[C@H](NC(=O)[C@H](C)NC(=O)[C@H](C)NC(=O)[C@]1(C)CCCC=CCCCCCC[C@@](C)(NC(=O)[C@H](Cc2ccccc2)NC(=O)[C@@H](NC(=O)[C@H](CC(C)C)NC(C)=O)[C@@H](C)O)C(=O)N[C@@H](C)C(=O)N[C@@H](Cc2ccc(O)cc2)C(=O)N[C@@H](Cc2c[nH]c3ccccc23)C(=O)N[C@@H](CO)C(=O)N[C@@H](CCC(N)=O)C(=O)N[C@@H](CCC(C)C)C(=O)N1)C(=O)N[C@@H](C)C(N)=O (single isomer, unassigned) [compound 312] | 0.01 to 0.1 µM | 0.01 to 0.1 µM | 0.1 to 1 µM | 0.01 to 0.1 µM
7 | CC(=O)N[C@@H](C)C(=O)N[C@@H](CC(C)C)C(=O)N[C@H](C(=O)N[C@@H](Cc1ccccc1)C(=O)N[C@]1(C)CCCCCCC=CCCC[C@@](C)(C(=O)N[C@@H](CO)C(=O)N[C@@H](C)C(=O)N[C@@H](C)C(N)=O)NC(=O)[C@H](CC2CCC2)NC(=O)[C@H](CCC(N)=O)NC(=O)[C@H](C)NC(=O)[C@H](Cc2c[nH]c3ccccc23)NC(=O)[C@H](Cc2ccc(O)cc2)NC(=O)[C@H](CCC(=O)O)NC1=O)[C@@H](C)O (single isomer, unassigned) [compound 328] | 0.01 to 0.1 µM | < 0.01 µM | 0.01 to 0.1 µM | 0.01 to 0.1 µM
8 | CCCC[C@H](NC(=O)[C@H](C)NC(=O)[C@H](CO)NC(=O)[C@]1(C)CCCC=CCCCCCC[C@@](C)(NC(=O)[C@H](Cc2ccccc2)NC(=O)[C@@H](NC(=O)[C@H](CC(C)C)NC(C)=O)[C@@H](C)O)C(=O)N[C@@H](CCC(=O)O)C(=O)N[C@@H](Cc2ccc(C(=O)O)cc2)C(=O)N[C@@H](Cc2c[nH]c3cc(Cl)ccc23)C(=O)N[C@@H](C)C(=O)N[C@@H](CCC(N)=O)C(=O)N[C@@H](CC2CCC2)C(=O)N1)C(=O)N[C@@H](C)C(N)=O (single isomer, unassigned) [compound 334] | < 0.01 µM | < 0.01 µM | 0.01 to 0.1 µM | < 0.01 µM
9 | CCCC[C@H](NC(=O)[C@H](C)NC(=O)[C@H](C)NC(=O)[C@]1(C)CCCC=CCCCCCC[C@@](C)(NC(=O)[C@H](Cc2ccccc2)NC(=O)[C@@H](NC(=O)[C@H](CC(C)C)NC(C)=O)[C@@H](C)O)C(=O)N[C@@H](C)C(=O)N(C)[C@@H](Cc2ccc(O)cc2)C(=O)N[C@@H](Cc2c[nH]c3ccccc23)C(=O)N[C@@H](C)C(=O)N[C@@H](CCC(N)=O)C(=O)N[C@@H](CC(C)C)C(=O)N1)C(=O)N[C@@H](C)C(N)=O (single isomer, unassigned) [compound 384] | 0.1 to 1 µM | 0.1 to 1 µM | > 1 µM | > 1 µM
10 | CCCC[C@H](NC(=O)[C@H](C)NC(=O)[C@H](C)NC(=O)[C@]1(C)CCCC=CCCCCCC[C@@](C)(NC(=O)[C@H](Cc2ccccc2)NC(=O)[C@@H](NC(=O)[C@H](CC(C)C)NC(C)=O)[C@@H](C)O)C(=O)N[C@@H](C)C(=O)N[C@@H](Cc2ccc(O)cc2)C(=O)N(C)[C@@H](Cc2c[nH]c3ccccc23)C(=O)N[C@@H](C)C(=O)N[C@@H](CCC(N)=O)C(=O)N[C@@H](CC(C)C)C(=O)N1)C(=O)N[C@@H](C)C(N)=O (single isomer, unassigned) [compound 386] | 0.1 to 1 µM | 0.1 to 1 µM | > 1 µM | > 1 µM
11 | CCCC[C@H](NC(=O)[C@H](C)NC(=O)[C@H](C)NC(=O)[C@]1(C)CCCC=CCCCCCC[C@@](C)(NC(=O)[C@H](Cc2ccccc2)NC(=O)[C@@H](NC(=O)[C@H](CC(C)C)NC(C)=O)[C@@H](C)O)C(=O)N[C@@H](C)C(=O)N[C@@H](Cc2ccc(O)cc2)C(=O)N[C@@H](Cc2c[nH]c3ccccc23)C(=O)NC(C)(C)C(=O)N[C@@H](CCC(N)=O)C(=O)N[C@@H](CC(C)C)C(=O)N1)C(=O)N[C@@H](C)C(N)=O (single isomer, unassigned) [compound 390] | 0.01 to 0.1 µM | < 0.01 µM | 0.01 to 0.1 µM | 0.01 to 0.1 µM
